Positions of bridges follow the written chain, without caps; N, C: chain ends. Non-standard residues stand in square brackets, D forms with d. Residues, ends and D or L forms follow the SMILES beside them. *: point of attachment. X1 = N[C@@H](CO)C(=O)N[C@@H](Cc1ccccc1)C(=O)NCCCCN*; NMeT = CN[C@H](C(=O)O)[C@@H](C)O

Series [1] deals with Splenocyte. The series can be described thus: Cytoprotective activity against anti-CD3/CD28 stimulated mouse splenocyte assessed as rescue of cell proliferation at 100 nM incubated for 72 hrs by CFSE staining based flow cytometric analysis. It counts as functional.
The subject of series [2] is Splenocyte. The series can be described thus: Cytoprotective activity against anti-CD3/CD28 stimulated mouse splenocyte assessed as rescue of PD-L1 stimulated inhibition of proliferation at 100 nM incubated for 72 hrs by CFSE staining based flow cytometric analysis. On the set-up: scale not given: the % may be the effect or the level left. On the technique in general: Flow cytometry measures light scatter and fluorescence of single cells or particles in a stream.

Series [3] relates to Splenocyte. Briefly: Cytoprotective activity against anti-CD3/CD28 stimulated mouse splenocyte co-cultured with MDA-MB-231 cells overexpressing PD-L1 assessed as rescue of cell proliferation at 100 nM incubated for 72 hrs by CFSE staining based flow cytometric analysis relative to control. It counts as functional.
For series [4], the target named is T1, V-type immunoglobulin domain-containing suppressor of T-cell activation (Homo sapiens, UniProt Q9H7M9).
T1 sequence (Q9H7M9 whole entry): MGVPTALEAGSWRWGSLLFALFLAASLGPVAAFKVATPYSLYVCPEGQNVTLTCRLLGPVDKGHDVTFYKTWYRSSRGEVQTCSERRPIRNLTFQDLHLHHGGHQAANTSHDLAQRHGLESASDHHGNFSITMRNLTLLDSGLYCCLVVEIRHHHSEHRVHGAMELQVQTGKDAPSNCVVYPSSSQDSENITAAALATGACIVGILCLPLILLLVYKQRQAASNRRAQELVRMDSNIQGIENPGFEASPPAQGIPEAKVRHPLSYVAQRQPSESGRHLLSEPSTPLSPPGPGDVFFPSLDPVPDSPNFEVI
The series can be described thus: Inhibition of VISTA (unknown origin) incubated for 15 mins by LANCE Ultra TR-FRET assay. (TR-FRET usually uses a lanthanide donor and a delayed reading to cut background.)

The target in series [5] is Programmed cell death 1 ligand 1 (Homo sapiens, UniProt Q9NZQ7). Briefly: Inhibition of His-tagged human recombinant PD-L1 incubated for 15 mins by LANCE Ultra TR-FRET assay.
Series [6] addresses T1, V-type immunoglobulin domain-containing suppressor of T-cell activation. The series can be described thus: Binding affinity to recombinant human VISTA ECD incubated for 2 hrs by ELISA assay. (An ELISA detects its analyte on a solid surface through an enzyme-linked reagent.)
Series [7] has the same target. The series can be described thus: Binding affinity to recombinant human His-tagged VISTA ECD incubated for 2 hrs by TR-FRET assay.
The subject of another series is B16-F10. Briefly: Antimetastatic activity against mouse B16-F10 cells implanted in C57BL/6 mouse assessed as decrease in lung metastasis at 5 mg/kg,sc and measured after 14 days. It counts as functional. Also noted: scale not given: the % may be the effect or the level left. The note with it: time 14 day.
Series [8] is described as follows: Half life in mouse liver microsomes at 1 uM by LC-MS/MS analysis. Type of series: ADME, Microsome.

Programmed cell death 1 ligand 1, sequence (Q9NZQ7 whole entry, the tested form may be a part): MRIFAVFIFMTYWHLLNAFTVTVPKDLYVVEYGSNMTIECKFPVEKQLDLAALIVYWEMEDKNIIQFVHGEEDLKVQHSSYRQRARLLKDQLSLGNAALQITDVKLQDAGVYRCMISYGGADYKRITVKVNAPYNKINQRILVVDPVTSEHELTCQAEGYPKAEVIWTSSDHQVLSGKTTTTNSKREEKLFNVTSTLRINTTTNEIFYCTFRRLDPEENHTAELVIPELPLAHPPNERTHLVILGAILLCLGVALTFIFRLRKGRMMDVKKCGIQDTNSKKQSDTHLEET

Turning to `C[C@H](O)[C@H](NC(=O)N[C@@H](CC(N)=O)c1nc(C2(N)CCCCC2)no1)C(=O)O`, the Activity with Splenocyte [1] was 86%.
One may read the EC50 as the midpoint of the concentration-response curve. For the compound `C[C@H](O)[C@H](NC(=O)N[C@@H](CC(N)=O)c1nc([C@@H](N)CO)no1)C(=O)O`, the Activity was greater than 70% in the series on Splenocyte [2], 89% in the series on Splenocyte [3] and 97% in the series with Splenocyte [1]. Further, the EC50 in [4] stood at 82.9 nM; in series [5] it was 66.1 nM.
`C[C@@H](O)[C@H]1C(=O)N[C@@H](CO)C(=O)N[C@H](C(=O)N[C@@H](CO)C(=O)N[C@@H](Cc2ccccc2)C(N)=O)CCCCNC(=O)CC[C@H](NC(=O)[C@@H](N)CO)C(=O)N1C` (H-SE[NMeT]SKSF-NH2; lactam 2-5): the Activity with Splenocyte [1] is on record as 82%.
With `C[C@@H](O)[C@@H]1NC(=O)[C@@H](NC(=O)[C@@H](N)CO)CCCCNC(=O)CC[C@@H](C(=O)N[C@@H](CO)C(=O)N[C@@H](Cc2ccccc2)C(N)=O)NC(=O)[C@H](CO)NC1=O` (H-SKTSESF-NH2; lactam 2-5), the Activity in the series on Splenocyte [3] worked out at 60%.
As for `C[C@H](O)[C@H](NC(=O)N[C@@H](CC(N)=O)c1nc([C@@H](N)CCCCN)no1)C(=O)O`, the Activity worked out at 96% in the series on Splenocyte [2] and 50% in the series on Splenocyte [1].
For `NCCCC[C@H](NC(=O)N[C@@H](CC(N)=O)C(=O)NNC(=O)[C@@H](N)CO)C(=O)O`, in the series with Splenocyte [1], the Activity is given as 87%.
A word on the IC50: it is the point on the concentration scale where inhibition reaches its midpoint. For the compound `CN(C)c1n/c(=N\Cc2ccco2)ss1`, the IC50 came to 9700 nM in series [6] and 4800 nM in [7].
Turning to `CCCNC(=O)CC[C@H](NC(=O)N[C@H](C(=O)O)[C@H](C)O)c1nc([C@@H](N)CO)no1`, the Activity with Splenocyte [2] is given as 119%; in the series with Splenocyte [1] it was less than 50%.
With `C[C@H](O)[C@@H]1NC(=O)N[C@@H](CC(N)=O)C(=O)NNC(=O)[C@H](CO)NC(=O)COCCOCCNC1=O`, the Activity in the series with Splenocyte [1] is 87%.
Consider `C[C@@H](O)[C@H](NC(=O)[C@H](CCC(N)=O)NC(=O)[C@@H](N)CO)C(=O)N[C@@H](CO)C(=O)N[C@@H](CCC(=O)NCCCCNC(=O)[C@H](Cc1ccccc1)NC(=O)[C@@H](N)CO)C(N)=O` (H-SQTSE(X1)-NH2), for which the Activity in the series with B16-F10 turned out to be 64%.
In general, half-life refers to how long it takes for the measured level to halve. `CC[C@H](C)[C@H](NC(=O)[C@H](CCC(N)=O)NC(=O)[C@H](C)NC(=O)[C@H](CCCCN)NC(=O)[C@@H]1CCCN1C(=O)[C@H](C)NC(=O)[C@H](CC(C)C)NC(=O)[C@H](CCC(N)=O)NC(=O)[C@@H](NC(=O)[C@@H](NC(=O)[C@H](CCCNC(=N)N)NC(=O)[C@H](Cc1ccccc1)NC(=O)[C@H](CCCCN[C@@H](Cc1ccccc1)C(=O)N[C@@H](CO)C(=O)N[C@@H](CCC(=O)O)C(=O)N[C@@H](CO)C(=O)N[C@H](C(=O)N[C@@H](CC(N)=O)C(=O)N[C@@H](CO)C(=O)O)[C@@H](C)O)NC(=O)[C@H](Cc1ccccc1)NC(=O)[C@H](CO)NC(=O)[C@H](CCC(=O)O)NC(=O)[C@H](CO)NC(=O)[C@@H](NC(=O)[C@H](CC(N)=O)NC(=O)[C@@H](N)CO)[C@@H](C)O)C(C)C)[C@@H](C)O)C(=O)N[C@@H](CCCCN)C(=O)N[C@@H](CCC(=O)O)C(=O)O` had a half-life at 1 µM in series [8] greater than 1.5 h.
